How the values were obtained:
HIF-1α = conditions: cited from earlier work
H460 xenograft = H460 xenograft model; cited from earlier work
mitochondrial complex I = conditions: cited from earlier work
[1] = biological target: mitochondrial Complex I (NADH:ubiquinone oxidoreductase); assay: MitoCheck Complex I activity assay (Cayman Chemicals #700930); assay type: biochemical
Source text: Complex I (NADH:ubiquinone oxidoreductase or NADH dehydrogenase (ubiquinone)) is a complex of enzymes of the respiratory chains that catalyzes the transfer of electrons from NADH to coenzyme Q10 (CoQ10) located in the inner mitochondrial membrane. […] Cancer Medicine, 2013, 2(5): 611-624. […] Interference with mitochondrial function to reduce hypoxia-induced HIF-1 activity in tumors is indicated as a therapeutic approach to overcome chemo- and radiotherapy resistance of hypoxic tumors. Helbig et al. report BAY 87-2243 improves local tumor control after fractionated irradiation in a schedule-dependent manner in head and neck human xenografts. Radiation Oncology 2014, 9:207. Santidrian et al. report mitochondrial complex I activity and NAD+/NADH balance regulate breast cancer progression. J Clin Invest, 2013, 123(3):1068-81. See also Ellinghaus et al., Cancer Med, 2013, 2(5):611-624. Chang et al., Clin Cancer Res, 2015, 21(2):335-46; Fulda et al., Antioxid Redox Signal, 2011, 15:2937-2949; Wenner, J Cell Physiol, 2012, 227:450-456; Fulda et al., Nat Rev Drug Discov, 2010, 9:447-464.
It has been discovered that certain HIF inhibitors disclosed herein are also mitochondrial inhibitors. […] KCN1 induced acidification of media may be due to the consequence of its mitochondrial inhibiting activity. […]

LN229 cells = assay: Toxicity to LN229 cells in the presence of galactose; assay type: cell-based, human
Source text: To be metabolized, galactose has to be converted into glucose in an energy consuming process that cannot be balanced by glycolytic metabolism. […] KCN1 is toxic to LN229 cells in the presence of galactose. […] Thus, in certain embodiments, the disclosure contemplates administering compounds disclosed herein in combination with a restricted or low glucose diet optionally in combination with galactose.

cell culture media = assay: Acidification of cell culture media (lactate production); assay type: cell-based; conditions: due to increased lactate production
Source text: It has been discovered that certain HIF inhibitors disclosed herein are also mitochondrial inhibitors. […] KCN1 induced acidification of media may be due to the consequence of its mitochondrial inhibiting activity. Inhibiting the mitochondrial complex I interferes with the normal functions of the electron transport chain. This in effect can damage DNA and specific components of the mitochondria which leads to cell death through the generation of reactive oxygen species.

| Compound | HIF-1α inhibition (HIF-1α) | antitumor activity in vivo (H460 xenograft) | mitochondrial complex I activity inhibition (mitochondrial complex I) | IC50 [1] [µM] | toxicity to LN229 cells (LN229 cells) | acidification of cell culture media (cell culture media) |
| --- | --- | --- | --- | --- | --- | --- |
| Cc1cc(-c2nc(-c3ccc(OC(F)(F)F)cc3)no2)nn1Cc1ccnc(N2CCN(C3CC3)CC2)c1 [BAY 87-2243] | inhibits HIF-1α | Antitumor activity of BAY 87-2243 in vivo was demonstrated | inhibits mitochondrial complex I activity | – | – | – |
| COc1ccc(S(=O)(=O)N(Cc2ccc3c(c2)C=CC(C)(C)O3)c2ccccc2)cc1OC [KCN1] | – | – | – | ~15 | toxic | strongly acidifies cell culture media |

Source: patent US10772858B2, “Benzhydrol derivatives for the management of conditions related to hypoxia inducible factors” (GEORGIA STATE UNIVERSITY RESEARCH FOUNDATION, priority 2015, dated 2020)
